According to ChEMBL document CHEMBL4680270, “Synthesis and biological evaluation of novel pyrazoline derivatives containing indole skeleton as anti-cancer agents targeting topoisomerase II” (Eur J Med Chem, 2020):
The source made the active and inactive calls. The calls are words filed in the database; no cut-off is given here.

Columns and labels:
MCF7 = test: Antiproliferative activity against human MCF7 cells assessed as reduction in cell growth incubated for 48 hrs by MTT assay; assay type: functional, cell-based; details: MCF7, 48 h
BEL-7404 tumor cell line = test: Antiproliferative activity against human Bel-7404 tumor cell line assessed as reduction in cell growth incubated for 48 hrs by MTT assay; assay type: functional, cell-based; details: BEL-7404, 48 h
[1] = Cytotoxicity against […] tumor cell line assessed as reduction in cell viability incubated for 48 hrs by MTT assay; details: L929, 48 h
HeLa = test: Antiproliferative activity against human HeLa cells assessed as reduction in cell growth incubated for 48 hrs by MTT assay; assay type: functional, cell-based
MGC-803 [2] = test: Antiproliferative activity against human MGC-803 cells assessed as reduction in cell growth incubated for 48 hrs by MTT assay; assay type: functional, cell-based; details: MGC-803, 48 h
MGC-803 [3] = test: Inhibition of topoisomerase 2 purified from human MGC-803 cells assessed as decrease in relaxation of supercoiled pBR322 plasmid DNA at 100 uM using pBR322 plasmid DNA as substrate incubated for 30 mins by agarose gel electrophoresis; assay type: cell-free
[4] = molecular target: T1, DNA topoisomerase 1 (Homo sapiens) (UniProt P11387); test: Inhibition of human topoisomerase 1 assessed as decrease in relaxation of supercoiled pBR322 plasmid DNA at 100 uM using pBR322 plasmid DNA as substrate incubated for 30 mins by agarose gel electrophoresis
T1 sequence (whole entry): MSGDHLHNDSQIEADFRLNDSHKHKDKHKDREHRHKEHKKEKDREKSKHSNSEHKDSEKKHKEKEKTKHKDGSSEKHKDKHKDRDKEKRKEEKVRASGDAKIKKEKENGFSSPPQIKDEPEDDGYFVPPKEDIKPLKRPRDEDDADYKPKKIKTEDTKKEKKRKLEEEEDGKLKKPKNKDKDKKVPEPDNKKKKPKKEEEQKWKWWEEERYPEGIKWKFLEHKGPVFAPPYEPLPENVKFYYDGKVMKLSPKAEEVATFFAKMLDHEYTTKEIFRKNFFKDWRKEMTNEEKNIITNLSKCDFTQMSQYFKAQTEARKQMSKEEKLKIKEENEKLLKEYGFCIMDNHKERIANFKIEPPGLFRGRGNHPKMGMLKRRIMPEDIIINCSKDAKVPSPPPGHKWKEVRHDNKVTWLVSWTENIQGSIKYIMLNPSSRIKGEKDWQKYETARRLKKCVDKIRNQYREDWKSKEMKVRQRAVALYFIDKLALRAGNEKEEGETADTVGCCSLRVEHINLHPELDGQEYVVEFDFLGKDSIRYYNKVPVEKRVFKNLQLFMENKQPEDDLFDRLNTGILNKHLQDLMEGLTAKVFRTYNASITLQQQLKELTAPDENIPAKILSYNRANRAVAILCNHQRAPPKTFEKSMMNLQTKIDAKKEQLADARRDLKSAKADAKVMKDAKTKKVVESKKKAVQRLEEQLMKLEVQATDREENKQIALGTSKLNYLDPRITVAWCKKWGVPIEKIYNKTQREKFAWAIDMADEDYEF

MGC-803 [5] = test: Inhibition of topoisomerase 2 purified from human MGC-803 cells assessed as decrease in relaxation of supercoiled pBR322 plasmid DNA at 20 uM using pBR322 plasmid DNA as substrate incubated for 30 mins by agarose gel electrophoresis; assay type: cell-free
MGC-803 [6] = test: Induction of cell cycle arrest in human MGC-803 cells assessed as S phase at 10 uM incubated for 48 hrs by PI staining based flow cytometry analysis (reference value: 43.6 %); assay type: functional
MGC-803 [7] = test: Induction of cell cycle arrest in human MGC-803 cells assessed as G2/M phase at 10 uM incubated for 48 hrs by PI staining based flow cytometry analysis (reference value: 8.8 %); assay type: functional
MGC-803 [8] = test: Induction of apoptosis in human MGC-803 cells assessed as necrotic cells at 20 uM incubated for 48 hrs by annexin V-FITC and PI staining based flow cytometry analysis (reference value: 0.03 %); assay type: functional
MGC-803 [9] = test: Induction of cell cycle arrest in human MGC-803 cells assessed as G0/G1 phase at 10 uM incubated for 48 hrs by PI staining based flow cytometry analysis (reference value: 47.6 %); assay type: functional
MGC-803 [10] = test: Induction of apoptosis in human MGC-803 cells assessed as late apoptotic cells at 20 uM incubated for 48 hrs by annexin V-FITC and PI staining based flow cytometry analysis (reference value: 2.96 %); assay type: functional
MGC-803 [11] = test: Induction of apoptosis in human MGC-803 cells assessed as late apoptotic cells at 10 uM incubated for 48 hrs by annexin V-FITC and PI staining based flow cytometry analysis (reference value: 2.96 %); assay type: functional
MGC-803 [12] = test: Induction of apoptosis in human MGC-803 cells assessed as early apoptotic cells at 10 uM incubated for 48 hrs by annexin V-FITC and PI staining based flow cytometry analysis (reference value: 2.54 %); assay type: functional
MGC-803 [13] = test: Induction of apoptosis in human MGC-803 cells assessed as viable cells at 10 uM incubated for 48 hrs by annexin V-FITC and PI staining based flow cytometry analysis (reference value: 94.47 %); assay type: functional; details: read-out: Activity
[14] = Drug uptake in human MGC-803 cells at 10 uM incubated for 8 hrs by laser scanning confocal microscope; assay type: ADME, cell-based; details: mgc-803, 8 h
MGC-803 [15] = test: Induction of apoptosis in human MGC-803 cells assessed as necrotic cells at 10 uM incubated for 48 hrs by annexin V-FITC and PI staining based flow cytometry analysis (reference value: 0.03 %); assay type: functional
MGC-803 [16] = test: Induction of apoptosis in human MGC-803 cells assessed as viable cells at 20 uM incubated for 48 hrs by annexin V-FITC and PI staining based flow cytometry analysis (reference value: 94.47 %); assay type: functional; details: read-out: Activity
MGC-803 [17] = test: Induction of apoptosis in human MGC-803 cells assessed as early apoptotic cells at 20 uM incubated for 48 hrs by annexin V-FITC and PI staining based flow cytometry analysis (reference value: 2.54 %); assay type: functional
Homo sapiens = organism: Homo sapiens; test: Inhibition of human topoisomerase 2 assessed as EtBr intercalation into plasmid DNA by converting relaxed DNA into supercoiled DNA at 100 to 300 uM incubated for 30 mins by agarose gel electrophoresis method; details: dose 100-300 µM
[18] = molecular target: DNA topoisomerase 2-alpha (Homo sapiens) (UniProt P11388); test: Poison activity at human topoisomerase 2alpha assessed as DNA cleavage by measuring linear DNA formation at 100 to 300 uM using supercoiled pBR322 DNA as substrate incubated for 30 mins by agarose gel electrophoresis method; details: dose 100-300 µM
DNA topoisomerase 2-alpha (Homo sapiens), sequence (P11388 whole entry): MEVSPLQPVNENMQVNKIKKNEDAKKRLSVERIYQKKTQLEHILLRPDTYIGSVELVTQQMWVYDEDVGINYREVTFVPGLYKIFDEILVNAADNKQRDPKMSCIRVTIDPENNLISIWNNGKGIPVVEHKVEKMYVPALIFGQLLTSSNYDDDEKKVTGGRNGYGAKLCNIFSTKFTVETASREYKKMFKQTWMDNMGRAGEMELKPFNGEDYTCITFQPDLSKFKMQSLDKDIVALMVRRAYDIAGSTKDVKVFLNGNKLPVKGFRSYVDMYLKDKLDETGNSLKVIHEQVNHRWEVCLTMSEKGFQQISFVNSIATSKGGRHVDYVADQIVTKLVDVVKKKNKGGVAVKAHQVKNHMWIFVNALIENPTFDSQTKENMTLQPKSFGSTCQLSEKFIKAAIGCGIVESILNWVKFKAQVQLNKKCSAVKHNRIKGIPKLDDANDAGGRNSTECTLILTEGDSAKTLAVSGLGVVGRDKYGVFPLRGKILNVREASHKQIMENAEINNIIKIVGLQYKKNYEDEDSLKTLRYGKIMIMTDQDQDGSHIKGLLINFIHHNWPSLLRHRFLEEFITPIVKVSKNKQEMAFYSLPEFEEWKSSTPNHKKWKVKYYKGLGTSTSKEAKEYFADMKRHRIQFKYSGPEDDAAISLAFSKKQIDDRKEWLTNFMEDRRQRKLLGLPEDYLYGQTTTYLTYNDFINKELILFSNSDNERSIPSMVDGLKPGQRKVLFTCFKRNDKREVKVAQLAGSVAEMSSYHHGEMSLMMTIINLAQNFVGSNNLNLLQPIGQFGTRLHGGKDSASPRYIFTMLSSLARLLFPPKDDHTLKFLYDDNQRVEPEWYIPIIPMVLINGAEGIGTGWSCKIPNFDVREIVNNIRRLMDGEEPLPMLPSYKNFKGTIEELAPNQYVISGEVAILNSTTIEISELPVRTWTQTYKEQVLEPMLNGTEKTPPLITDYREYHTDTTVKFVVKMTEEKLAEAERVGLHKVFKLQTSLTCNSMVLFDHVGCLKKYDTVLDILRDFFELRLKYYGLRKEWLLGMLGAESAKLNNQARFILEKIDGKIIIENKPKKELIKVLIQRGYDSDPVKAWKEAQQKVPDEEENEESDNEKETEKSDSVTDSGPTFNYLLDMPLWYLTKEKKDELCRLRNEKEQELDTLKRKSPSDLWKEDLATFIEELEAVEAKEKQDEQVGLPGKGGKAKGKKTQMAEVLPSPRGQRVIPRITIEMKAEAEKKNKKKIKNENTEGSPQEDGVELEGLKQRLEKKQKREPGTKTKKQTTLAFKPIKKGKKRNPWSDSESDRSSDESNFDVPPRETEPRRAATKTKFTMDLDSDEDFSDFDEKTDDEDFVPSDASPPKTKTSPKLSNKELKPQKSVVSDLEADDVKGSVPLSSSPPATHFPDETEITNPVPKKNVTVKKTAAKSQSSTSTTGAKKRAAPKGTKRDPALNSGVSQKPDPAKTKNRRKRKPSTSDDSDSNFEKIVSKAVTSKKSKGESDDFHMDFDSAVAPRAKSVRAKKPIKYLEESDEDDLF

SMILES	IC50 (MCF7) [µM]	IC50 (BEL-7404 tumor cell line) [µM]	IC50 [1] [µM]	IC50 (HeLa) [µM]	IC50 (MGC-803 [2]) [µM]	inhibition (MGC-803 [3])	inhibition [4]	inhibition (MGC-803 [5])	also measured
COc1cc([C@@H]2c3cc4c(cc3[C@@H](O[C@@H]3O[C@@H]5CO[C@@H](C)O[C@H]5[C@H](O)[C@H]3O)[C@H]3COC(=O)[C@H]23)OCO4)cc(OC)c1O [ETOPOSIDE]	1.45	7.76	80.4	5.35	11.2				
Fc1cccc2c1SCC1C2=NN(c2ccccc2)C1c1c[nH]c2ccccc12 (stereo unspecified)	35.7	36.2	158	31.6	31.1	Active	inactive	Active	
Cc1cccc2c1SCC1C2=NN(c2ccccc2)C1c1c[nH]c2ccccc12 (stereo unspecified)	38	57.3	189	37	28	Active	inactive		
Cn1cc(C2C3CSc4ccc(Cl)cc4C3=NN2c2ccccc2)c2ccccc21 (stereo unspecified)	51.1	36.2	262	48.7	33.1		inactive		
Cc1ccc(C)c2c1SCC1C2=NN(c2ccccc2)C1c1c[nH]c2ccccc12 (stereo unspecified)	37.7	37.5	183	39.7	35.6	Active	inactive	Active	
Cc1cc2c(cc1F)C1=NN(c3ccccc3)C(c3c[nH]c4ccccc34)C1CS2 (stereo unspecified)	47.8	61.9	150	41.1	27.8	Active	inactive		
Clc1ccc2c(c1)C1=NN(c3ccccc3)C(c3c[nH]c4ccccc34)C1CS2 (stereo unspecified)	26.1	42.9	160	38.2	15.4	Active	inactive	Active	Activity (MGC-803 [6]): 25.3%; Activity (MGC-803 [7]): 36.6%; Activity (MGC-803 [8]): 2.18%; Activity (MGC-803 [9]): 38.1%; Activity (MGC-803 [10]): 52.74%; Activity (MGC-803 [11]): 17.02%; Activity (MGC-803 [12]): 12.32%; viability at 10 µM (MGC-803 [13]): 69.9%; Drug uptake [14]: Active; Activity (MGC-803 [15]): 0.73%; viability at 20 µM (MGC-803 [16]): 36.9%; Activity (MGC-803 [17]): 8.17%
Fc1ccc2c(c1)C1=NN(c3ccccc3)C(c3c[nH]c4ccccc34)C1CS2 (stereo unspecified)	37.8	50.2	175	50	39.3	Active	inactive	Active	
Clc1ccc2c(c1)C1=NN(c3ccccc3)C(c3c[nH]c4ccc(Br)cc34)C1CS2 (stereo unspecified)	37.1	32.1	154	35.1	29.3		inactive		
Cc1ccc2c(c1)C1=NN(c3ccccc3)C(c3c[nH]c4ccccc34)C1CS2 (stereo unspecified)	68	> 120	158	36.4	21.9	Active	inactive	Active	
Cc1cc(C)c2c(c1)C1=NN(c3ccccc3)C(c3c[nH]c4ccccc34)C1CS2 (stereo unspecified)	27	23.7	134	29.2	26.5		inactive		
COc1ccc2c(c1)C1=NN(c3ccccc3)C(c3c[nH]c4ccccc34)C1CS2 (stereo unspecified)	> 120	> 120	120	> 120	36.4	Active	inactive		
Clc1cc(Cl)c2c(c1)C1=NN(c3ccccc3)C(c3c[nH]c4ccccc34)C1CS2 (stereo unspecified)	25.6	21	105	25	20.5	Active	inactive	Active	Activity (MGC-803 [6]): 25.4%; Activity (MGC-803 [7]): 24.9%; Activity (MGC-803 [8]): 2.54%; inhibition (Homo sapiens): inactive; inhibition [18]: inactive; Activity (MGC-803 [9]): 49.7%; Activity (MGC-803 [10]): 36.06%; Activity (MGC-803 [11]): 4.99%; Activity (MGC-803 [12]): 4.92%; viability at 10 µM (MGC-803 [13]): 89.6%; Drug uptake [14]: Active; Activity (MGC-803 [15]): 0.5%; viability at 20 µM (MGC-803 [16]): 49.2%; Activity (MGC-803 [17]): 12.17%
Clc1cc2c(cc1Cl)C1=NN(c3ccccc3)C(c3c[nH]c4ccccc34)C1CS2 (stereo unspecified)	72.8	> 120	164	27.4	27.1	Active	inactive	Active	
